Patent US20260325504A1, “Genetically Engineered Human Pituitary Corticotroph Tumor Organoids Exhibit Divergent Responses to Selective Glucocorticoid Receptor Modulators” (Corcept Therapeutics Incorporated, priority 2022, published 2026)
Entries after “also recorded” stand apart in the source; their conditions may differ.

Legend:
[1] = tested on: SSTR5; test: Differential expression of SSTR5 (qRT-PCR) in iPSC generated pituitary organoids; assay type: cell-based, human; settings: for expression of SSTR5: 500 nM, vs vehicle; for SSTR5 induction relative to SSTR2: PitNET organoids, summary
Method: (§1) Sonic Hedgehog (SHH) was withdrawn from the organoid growth media 16 hours prior to treatment. The experimental treatment groups included: vehicle (Veh), mifepristone (500 nM, Selleckchem S2606), GANT61 (5 μM, Stemcell Technologies 73692), ketoconazole (Keto, 10 μM, Selleckchem S1353), pasireotide (Pas, 100 nM, Target Mol TP2207-SB001), octreotide (Oct, 100 nM, Selleckchem P1017), mifepristone plus GANT61, mifepristone plus Keto, mifepristone plus Pas, relacorilant (500 nM, Corcept Therapeutics CORT125134), relacorilant plus Pas, relacorilant plus Oct, or dexamethasone (Dexa, 100 nM, SIGMA S4902). In the combination treatments, cultures were pretreated with the GANT61, Keto, Pas or Oct for 2 hours prior to treatment with mifepristone or Rela. PitNET tissue derived organoids hPITO36, hPITO37, hPITO38, hPITO39, and hPITO40 were treated with the following experimental conditions: Vehicle (1), pasireotide (2), relacorilant (3), relacorilant & pasireotide (4), mifepristone (5), mifepristone & pasireotide (6). The IC50 values used for each hPITO line for each drug were determined based on dose responses (FIG. 12). All organoid cultures were treated for 48 hours prior to analysis.
RNA was extracted from PitNET tissue or iPSC generated organoids using TRI Reagent® (Molecular Research Center Inc TR118) and the High Capacity cDNA Reverse Transcription Kit (Applied Biosystems, Foster City, CA) was used for cDNA synthesis of RNA following the recommended protocol. For each sample, 60 ng RNA was reverse transcribed to yield approximately […] total cDNA that was then used for the qRT-PCR. Pre-designed real-time polymerase chain reaction assays were purchased for the following genes: TPit (Thermo Fisher Scientific 4331182 Hs00193027), SF1 (Thermo Fisher Scientific 4331182 Hs00610436), SSTR2 (Thermo Fisher Scientific 4331182 Hs00265624_s1), SSTR5 (Thermo Fisher Scientific 4331182 Hs00990407_s1), POMC (Thermo Fisher Scientific 4331182 Hs01596743_ml), hPRT (Thermo Fisher Scientific 4331182 Hs02800695_ml), and FKBP5 (Thermo Fisher Scientific 4331182 Hs01561006_m1). Polymerase chain reaction amplifications were performed in a total volume of 20 μL containing 20× TaqMan Expression Assay primers, 2× TaqMan Universal Master Mix (Applied Biosystems, TaqMan® Gene Expression Systems), and cDNA template. Each polymerase chain reaction amplification was performed in triplicate wells in a StepOne Real-Time PCR System (Applied Biosystems) by using the following conditions: 500C 2 minutes, 95° C. 10 minutes, 95° C. 15 seconds (denature) and 60° C. 1 minute (anneal/extend) for 40 cycles. Fold change was calculated as the following: (Ct-Ct high)=n target, 2ntarget/2nHPRT=fold change where Ct=threshold cycle. The results were expressed as average fold change in or differential gene expression relative to control, with HPRT used as an internal control according to Livak and Schmittgen.

[2] = tested on: iPSC^ctrl organoids; test: Nuclear morphometric analysis (nuclear irregularity index), iPSCctrl organoids; assay type: cell-based, human; settings: 500 nM, 48 h
Method: Nuclear Morphometric Analysis (NMA) using treated organoids was performed based on a published protocol that measures cell viability based on the changes in nuclear morphology of the cells using nuclear stain Hoechst or DAPI [31]. Images of organoid nuclei were analyzed using the ImageJ Nuclear Irregularity Index (NII) plugin for key parameters that included cell area, radius ratio, area box, aspect, and roundness. Using the published spreadsheet template, the NII of each cell was calculated with the following formula: NII=Aspect−Area Box+Radius Ratio+Roundness. The area vs NII of vehicle-treated cells were plotted as a scatter plot using the template and considered as the normal cell nuclei. […] The percentage of cells in each NII classification category were calculated and plotted as a histogram using GraphPad Prism.
Sonic Hedgehog (SHH) was withdrawn from the organoid growth media 16 hours prior to treatment. […] The IC50 values used for each hPITO line for each drug were determined based on dose responses (FIG. 12). […]

[3] = tested on: SSTR2; test: Spectral flow cytometry, SSTR2 positive cells, iPSCUSP48MV organoids; assay type: cell-based, human; settings: 48 h, FIGS. 8A, E
Method: as §1
The multicolor flow cytometry antibody panel was designed using the Cytek® Full Spectrum Viewer online tool to calculate the similarity index. Organoids were harvested in cold Serum-Free Defined Medium media and incubated with Zombie (BioLegend 423107, 1:100) for 15 minutes in the dark at room temperature, followed by incubation with fluorochrome-conjugated/unconjugated primary surface or cytoplasmic antibodies (Table 6) at 4° C. for 30 minutes. Cells were then washed with Cell Staining Buffer (BioLegend 420-201) and incubated at 4° C. for 30 minutes with secondary antibodies (Table 6). Cells were fixed using Cytofix/Cytoperm™ Fixation/Permeabilization Solution (BD Biosciences 554714) and washed with Fixation/Permeabilization wash buffer according to the recommended protocol. […] Data was acquired using the Cytek® Aurora, analyzed using Cytobank Premium software (Beckman Coulter).

[4] = tested on: PitNET organoids; test: ACTH secretion from PitNET (summary); assay type: cell-based, human
Method: as §1, with “PitNET tissue derived organoids hPITO36, hPITO37, hPITO38, hPITO39, and hPITO40 were treated with the following experimental conditions: Vehicle (1), pasireotide (2), relacorilant (3), relacorilant & pasireotide (4), mifepristone (5), mifepristone & pasireotide (6).” left out, “All organoid cultures were treated for 48 hours prior to analysis.” left out
Organoid conditioned media was collected and ACTH secretion using an ELISA according to the manufacturer's protocol (Novus Biologicals Human ACTH ELISA Kit NBP2-66401). The optical density was measured at a wavelength of 450 nm, and ACTH concentration (pg/mL) was interpolated using a standard curve with a 4-parameter logistic regression analysis using GraphPad Prism (v9.3.1).

[5] = tested on: progesterone receptor; settings: cited from earlier work

Structure (SMILES) | expression of SSTR5 ([1]; iPSC organoids, 48 h) | differential expression of SSTR5 ([1]; iPSCctrl organoids, compound alone, 48 h, FIG. 5C, D) | apoptotic cells by nuclear irregularity index (NII) [2] | magnitude of SSTR2 induction, mifepristone vs relacorilant [3] | percentage of SSTR2 positive cells [3] | ACTH secretion from PitNET organoids [4] | binding to the progesterone receptor [5] | SSTR5 induction relative to SSTR2 [1] | SSTR5 induction relative to SSTR2 ([1]; listed as Relacorilant) | induction in SSTR5 expression, relacorilant compared to mifepristone ([1]; iPSC organoids, 500 nM each, 48 h, FIG. 5B)
CC#C[C@]1(O)CC[C@H]2[C@@H]3CCC4=CC(=O)CCC4=C3[C@@H](c3ccc(N(C)C)cc3)C[C@@]21C [mifepristone, 11β-(4-dimethylaminophenyl)-17ß-hydroxy-17α-(1-propynyl)-estra-4,9-dien-3-one] | significant induction; also recorded: significantly induced the expression | significantly induced | not observed; also recorded: induces apoptosis in neither the tumor organoid iPSC^USP48MV nor the control organoid iPSC^ctrl | significantly greater than that of relacorilant | significant increase | preferentially induced the expression of SSTR2, ACTH secretion and PitNET organoid proliferation; also recorded: significantly increased ACTH secretion from PitNET both in vivo and in vitro | binding to the progesterone receptor |  |  | 
Cn1cc(S(=O)(=O)N2CCC3=Cc4c(cnn4-c4ccc(F)cc4)C[C@]3(C(=O)c3cc(C(F)(F)F)ccn3)C2)cn1 [relacorilant, (R)-(1-(4-fluorophenyl)-6-((1-methyl-1H-pyrazol-4-yl)sulfonyl)-4,4a,5,6,7,8-hexahydro-1H-pyrazolo[3,4-g]isoquinolin-4a-yl) (4-(trifluoromethyl)pyridin-2-yl) methanone] | significant induction; also recorded: significantly induced the expression |  | not observed |  | significant increase | without significant stimulation of ACTH secretion; also recorded: without an increase in ACTH secretion | no detectable binding | predominantly induced SSTR5 expression; also recorded: greater induction of SSTR5 expression as compared to SSTR2 | predominantly induces SSTR5 | induced greater SSTR5 expression
